Experimental data as given in US20090018134A1, “Compounds - 945” (AstraZeneca AB, priority 2007, published 2009).
pIC50: −log10 of the molar value.

Molecular target: T1, mTOR (Homo sapiens, UniProt P42345)
T1 construct: FLAG; made in house
Assay: In Vitro mTOR Kinase Assay (Echo), Test (a)(ii)
Assay type: biochemical
Details: table of enzyme assay Test (a)(ii); read-out: Test (a)(ii) IC50
Outline: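 FLAG-tagged human mTOR truncation (residues 1362-2549) expressed in HEK293 cells and FLAG-purified. Compounds dispensed acoustically, reaction 2 h at room temperature, stopped with EDTA. Phosphorylation of biotinylated peptide detected by AlphaScreen with anti-p70 S6K (T389) antibody overnight; IC50 reported.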

T1 sequence (P42345 1362-2549): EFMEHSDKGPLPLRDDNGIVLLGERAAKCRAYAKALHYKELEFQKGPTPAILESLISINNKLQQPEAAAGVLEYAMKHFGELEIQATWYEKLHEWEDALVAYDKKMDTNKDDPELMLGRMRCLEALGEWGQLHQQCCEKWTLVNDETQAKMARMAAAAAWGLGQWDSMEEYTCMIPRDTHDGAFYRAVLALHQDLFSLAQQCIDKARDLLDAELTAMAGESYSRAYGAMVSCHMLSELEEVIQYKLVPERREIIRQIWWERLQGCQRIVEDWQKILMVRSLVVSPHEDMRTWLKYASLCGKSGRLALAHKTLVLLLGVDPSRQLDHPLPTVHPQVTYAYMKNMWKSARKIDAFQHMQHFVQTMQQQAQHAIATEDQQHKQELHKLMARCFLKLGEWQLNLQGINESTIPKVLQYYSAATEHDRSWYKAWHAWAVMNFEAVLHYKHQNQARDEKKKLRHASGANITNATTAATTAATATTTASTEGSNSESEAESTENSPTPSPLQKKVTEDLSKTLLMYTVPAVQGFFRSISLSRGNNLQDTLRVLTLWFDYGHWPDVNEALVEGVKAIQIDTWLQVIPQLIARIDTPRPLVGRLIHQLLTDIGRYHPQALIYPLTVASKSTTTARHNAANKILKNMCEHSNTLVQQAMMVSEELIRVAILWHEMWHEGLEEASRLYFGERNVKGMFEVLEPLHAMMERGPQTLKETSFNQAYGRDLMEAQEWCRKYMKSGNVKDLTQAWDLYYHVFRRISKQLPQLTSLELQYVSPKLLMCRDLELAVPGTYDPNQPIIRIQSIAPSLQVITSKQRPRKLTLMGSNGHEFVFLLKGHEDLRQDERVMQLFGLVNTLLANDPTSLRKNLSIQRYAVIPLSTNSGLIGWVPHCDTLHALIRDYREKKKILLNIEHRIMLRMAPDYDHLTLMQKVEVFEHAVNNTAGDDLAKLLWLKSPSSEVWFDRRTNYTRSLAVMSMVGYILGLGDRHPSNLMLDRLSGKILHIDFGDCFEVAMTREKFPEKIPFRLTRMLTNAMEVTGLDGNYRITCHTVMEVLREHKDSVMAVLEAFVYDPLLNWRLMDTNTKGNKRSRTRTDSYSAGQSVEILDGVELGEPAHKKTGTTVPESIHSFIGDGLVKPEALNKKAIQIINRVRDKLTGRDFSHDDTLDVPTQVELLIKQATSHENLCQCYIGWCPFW

Row | Structure (SMILES) | pIC50
1 | Cc1csc(S(=O)(=O)C2(c3cc(N4CCOC[C@@H]4C)nc(-c4ccc(NC(=O)NCC(C)C)cc4)n3)CC2)n1 [Example 25c, 1-[4-[4-[(3S)-3-methylmorpholin-4-yl]-6-[1-[(4-methyl-1,3-thiazol-2-yl)sulfonyl]cyclopropyl]pyrimidin-2-yl]phenyl]-3-(2-methylpropyl)urea] | 8.41
2 | CCNC(=O)Nc1ccc(-c2nc(N3CCOC[C@@H]3C)cc(C3(S(=O)(=O)c4nc(C)cs4)CC3)n2)cc1 [Example 25e, 1-ethyl-3-[4-[4-[(3S)-3-methylmorpholin-4-yl]-6-[1-[(4-methyl-1,3-thiazol-2-yl)sulfonyl]cyclpropyl]pyrimidin-2-yl]phenyl]urea] | 9.56
3 | Cc1csc(S(=O)(=O)C2(c3cc(N4CCOC[C@@H]4C)nc(-c4ccc(NC(=O)NCCN(C)C)cc4)n3)CC2)n1 [Example 25f, 3-(2-dimethylaminoethyl)-1-[4-[4-[(3S)-3-methylmorpholin-4-yl]-6-[1-[(4-methyl-1,3-thiazol-2-yl)sulfonyl]cyclopropyl]pyrimidin-2-yl]phenyl]urea] | 7.26
4 | CCCNC(=O)Nc1ccc(-c2nc(N3CCOC[C@@H]3C)cc(C3(S(=O)(=O)c4nc(C)cs4)CC3)n2)cc1 [Example 25h, 3-[4-[4-[(3S)-3-methylmorpholin-4-yl]-6-[1-[(4-methyl-1,3-thiazol-2-yl)sulfonyl]cyclopropyl]pyrimidin-2-yl]phenyl]-1-propylurea] | 9.00
5 | CNC(=O)Nc1ccc(-c2nc(N3CCOC[C@@H]3C)cc(C3(S(=O)(=O)c4nc(C)cs4)CC3)n2)cc1 [Example 25i, 3-methyl-1-[4-[4-[(3S)-3-methylmorpholin-4-yl]-6-[1-[(4-methyl-1,3-thiazol-2-yl)sulfonyl]cyclopropyl]pyrimidin-2-yl]phenyl]urea] | 9.00
6 | Cc1csc(S(=O)(=O)C2(c3cc(N4CCOC[C@@H]4C)nc(-c4ccc(NC(=O)Nc5ccc(C(F)(F)F)cc5)cc4)n3)CC2)n1 [Example 25j, 1-[4-[4-[(3S)-3-methylmorpholin-4-yl]-6-[1-[(4-methyl-1,3-thiazol-2-yl)sulfonyl]cyclopropyl]pyrimidin-2-yl]phenyl]-3-[4-(trifluoromethyl)phenyl]urea] | 8.24
7 | Cc1csc(S(=O)(=O)C2(c3cc(N4CCOC[C@@H]4C)nc(-c4ccc(NC(=O)NC(C)(C)CO)cc4)n3)CC2)n1 [Example 25k, 3-(1-hydroxy-2-methylpropan-2-yl)-1-[4-[4-[(3S)-3-methylmorpholin-4-yl]-6-[1-[(4-methyl-1,3-thiazol-2-yl)sulfonyl]cyclopropyl]pyrimidin-2-yl]phenyl]urea] | 8.53
8 | Cc1csc(S(=O)(=O)C2(c3cc(N4CCOC[C@@H]4C)nc(-c4ccc(NC(=O)NCCCO)cc4)n3)CC2)n1 [Example 25l, 3-(3-hydroxypropyl)-1-[4-[4-[(3S)-3-methylmorpholin-4-yl]-6-[1-[(4-methyl-1,3-thiazol-2-yl)sulfonyl]cyclopropyl]pyrimidin-2-yl]phenyl]urea] | 9.02
9 | Cc1csc(S(=O)(=O)C2(c3cc(N4CCOC[C@@H]4C)nc(-c4ccc(NC(=O)Nc5cnn(C)c5)cc4)n3)CC2)n1 [Example 25m, 1-[4-[4-[(3S)-3-methylmorpholin-4-yl]-6-[1-[(4-methyl-1,3-thiazol-2-yl)sulfonyl]cyclopropyl]pyrimidin-2-yl]phenyl]-3-(1-methylpyrazol-4-yl)urea] | 9.60
10 | C[C@H]1COCCN1c1cc(C2(S(=O)(=O)C3CCCCC3)CC2)nc(-c2ccc(NC(=O)NC3CC3)cc2)n1 [Example 26, 1-[4-[4-(1-Cyclohexylsulfonylcyclopropyl)-6-[(3S)-3-methylmorpholin-4-yl]pyrimidin-2-yl]phenyl]-3-cyclopropylurea] | 8.22

More lines, now with the values ahead:

Row | pIC50 | Structure (SMILES)
11 | 8.17 | C[C@H]1COCCN1c1cc(C2(S(=O)(=O)C3CCCCC3)CC2)nc(-c2ccc(NC(=O)NC3CCC3)cc2)n1 [Example 26a, 3-cyclobutyl-1-[4-[4-(1-cyclohexylsulfonylcyclopropyl)-6-[(3S)-3-methylmorpholin-4-yl]pyrimidin-2-yl]phenyl]urea]
12 | 8.41 | CCNC(=O)Nc1ccc(-c2nc(N3CCOC[C@@H]3C)cc(C3(S(=O)(=O)C4CCCCC4)CC3)n2)cc1 [Example 26b, 3-[4-[4-(1-cyclohexylsulfonylcyclopropyl)-6-[(3S)-3-methylmorpholin-4-yl]pyrimidin-2-yl]phenyl]-1-ethylurea]
13 | 6.92 | C[C@H]1COCCN1c1cc(C2(S(=O)(=O)C3CCCCC3)CC2)nc(-c2ccc(NC(=O)NCCN(C)C)cc2)n1 [Example 26c, 1-[4-[4-(1-cyclohexylsulfonylcyclopropyl)-6-[(3S)-3-methylmorpholin-4-yl]pyrimidin-2-yl]phenyl]-3-(2-dimethylaminoethyl)urea]
14 | 8.92 | C[C@H]1COCCN1c1cc(C2(S(=O)(=O)C3CCCCC3)CC2)nc(-c2ccc(NC(=O)NCCO)cc2)n1 [Example 26d, 1-[4-[4-(1-cyclohexylsulfonylcyclopropyl)-6-[(3S)-3-methylmorpholin-4-yl]pyrimidin-2-yl]phenyl]-3-(2-hydroxyethyl)urea]
15 | 8.40 | CNC(=O)Nc1ccc(-c2nc(N3CCOC[C@@H]3C)cc(C3(S(=O)(=O)C4CCCCC4)CC3)n2)cc1 [Example 26e, 1-[4-[4-(1-cyclohexylsulfonylcyclopropyl)-6-[(3S)-3-methylmorpholin-4-yl]pyrimidin-2-yl]phenyl]-3-methylurea]
16 | 8.34 | C[C@H]1COCCN1c1cc(C2(S(=O)(=O)C3CCCCC3)CC2)nc(-c2ccc(NC(=O)NC(C)(C)CO)cc2)n1 [Example 26f, 1-[4-[4-(1-cyclohexylsulfonylcyclopropyl)-6-[(3S)-3-methylmorpholin-4-yl]pyrimidin-2-yl]phenyl]-3-(1-hydroxy-2-methylpropan-2-yl)urea]
17 | 8.13 | C[C@H]1COCCN1c1cc(C2(S(=O)(=O)C3CCCCC3)CC2)nc(-c2ccc(NC(=O)NCCCO)cc2)n1 [Example 26g, 1-[4-[4-(1-cyclohexylsulfonylcyclopropyl)-6-[(3S)-3-methylmorpholin-4-yl]pyrimidin-2-yl]phenyl]-3-(3-hydroxypropyl)urea]
18 | 8.40 | C[C@H]1COCCN1c1cc(C2(S(=O)(=O)C3CCCCC3)CC2)nc(-c2ccc(NC(=O)Nc3cnn(C)c3)cc2)n1 [Example 26h, 1-[4-[4-(1-cyclohexylsulfonylcyclopropyl)-6-[(3S)-3-methylmorpholin-4-yl]pyrimidin-2-yl]phenyl]-3-(1-methylpyrazol-4-yl)urea]
19 | 8.41 | C[C@H]1COCCN1c1cc(C2(S(=O)(=O)c3ccc(Cl)cc3)CC2)nc(-c2ccc(NC(=O)NC3CCC3)cc2)n1 [Example 27a, 1-[4-[4-[1-(4-chlorophenyl)sulfonylcyclopropyl]-6-[(3S)-3-methylmorpholin-4-yl]pyrimidin-2-yl]phenyl]-3-cyclobutylurea]
20 | 8.37 | C[C@H]1COCCN1c1cc(C2(S(=O)(=O)c3ccc(Cl)cc3)CC2)nc(-c2ccc(NC(=O)Nc3ccccn3)cc2)n1 [Example 27b, 1-[4-[4-[1-(4-chlorophenyl)sulfonylcyclopropyl]-6-[(3S)-3-methylmorpholin-4-yl]pyrimidin-2-yl]phenyl]-3-pyridin-2-ylurea]
21 | 7.85 | CC(C)CNC(=O)Nc1ccc(-c2nc(N3CCOC[C@@H]3C)cc(C3(S(=O)(=O)c4ccc(Cl)cc4)CC3)n2)cc1 [Example 27c, 1-[4-[4-[1-(4-chlorophenyl)sulfonylcyclopropyl]-6-[(3S)-3-methylmorpholin-4-yl]pyrimidin-2-yl]phenyl]-3-(2-methylpropyl)urea]
22 | 8.51 | CC(C)NC(=O)Nc1ccc(-c2nc(N3CCOC[C@@H]3C)cc(C3(S(=O)(=O)c4ccc(Cl)cc4)CC3)n2)cc1 [Example 27d, 1-[4-[4-[1-(4-chlorophenyl)sulfonylcyclopropyl]-6-[(3S)-3-methylmorpholin-4-yl]pyrimidin-2-yl]phenyl]-3-propan-2-ylurea]
23 | 8.52 | CCCNC(=O)Nc1ccc(-c2nc(N3CCOC[C@@H]3C)cc(C3(S(=O)(=O)c4ccc(Cl)cc4)CC3)n2)cc1 [Example 27i, 3-[4-[4-[1-(4-chlorophenyl)sulfonylcyclopropyl]-6-[(3S)-3-methylmorpholin-4-yl]pyrimidin-2-yl]phenyl]-1-propylurea]
24 | 8.12 | C[C@H]1COCCN1c1cc(C2(S(=O)(=O)c3ccc(Cl)cc3)CC2)nc(-c2ccc(NC(=O)Nc3ccc(C(F)(F)F)cc3)cc2)n1 [Example 27j, 1-[4-[4-[1-(4-chlorophenyl)sulfonylcyclopropyl]-6-[(3S)-3-methylmorpholin-4-yl]pyrimidin-2-yl]phenyl]-3-[4-(trifluoromethyl)phenyl]urea]
25 | 8.34 | C[C@H]1COCCN1c1cc(C2(S(=O)(=O)c3ccc(Cl)cc3)CC2)nc(-c2ccc(NC(=O)NC(C)(C)CO)cc2)n1 [Example 27k, 1-[4-[4-[1-(4-chlorophenyl)sulfonylcyclopropyl]-6-[(3S)-3-methylmorpholin-4-yl]pyrimidin-2-yl]phenyl]-3-(1-hydroxy-2-methylpropan-2-yl)urea]
26 | 8.95 | C[C@H]1COCCN1c1cc(C2(S(=O)(=O)c3ccc(Cl)cc3)CC2)nc(-c2ccc(NC(=O)NCCCO)cc2)n1 [Example 27l, 1-[4-[4-[1-(4-chlorophenyl)sulfonylcyclopropyl]-6-[(3S)-3-methylmorpholin-4-yl]pyrimidin-2-yl]phenyl]-3-(3-hydroxypropyl)urea]
27 | 8.84 | C[C@H]1COCCN1c1cc(C2(S(=O)(=O)c3ccc(Cl)cc3)CC2)nc(-c2ccc(NC(=O)Nc3cnn(C)c3)cc2)n1 [Example 27m, 1-[4-[4-[1-(4-chlorophenyl)sulfonylcyclopropyl]-6-[(3S)-3-methylmorpholin-4-yl]pyrimidin-2-yl]phenyl]-3-(1-methylpyrazol-4-yl)urea]
28 | 8.60 | C[C@H]1COCCN1c1cc(C2(S(=O)(=O)c3ccccn3)CC2)nc(-c2ccc(NC(=O)NC3CCC3)cc2)n1 [Example 28a, 3-cyclobutyl-1-[4-[4-[(3S)-3-methylmorpholin-4-yl]-6-(1-pyridin-2-ylsulfonylcyclopropyl)pyrimidin-2-yl]phenyl]urea]
